Results on five molecules are retold here after US4590275A, “Benzoheterazolo[3,2-a]quinolinium salts” (Commonwealth of Puerto Rico, priority 1983, dated 1986).

One series has as its system P388 murine leukemia. Conditions: cited from earlier work.
For another series, the system named is L1210 murine leukemia. Conditions: cited from earlier work.
The test system of another series is DNA synthesis. Conditions: probably by interacting with A:T base pairs; cited from earlier work.
For the next series, the system named is KB cells. As to the kind of experiment: Cytotoxic activity in vitro, KB cells. Type of series: cell-based. Conditions: for IC50: Homo sapiens, KB cells, average of at least three experiments, read-out: ED50 KB. The procedure: (§1) It appears that structural variations such as replacement of sulfur for oxygen or selenium as well as changes in the electronic nature of the substituents are critical factors in eliciting the inhibitory activity. Since in general satisfactory cytotoxic activity "in vitro" corresponds to good antitumor activity in vivo, the antitumor activity of compound Ib was assessed in mice bearing Ehrlich ascites tumor. A range of doses from 400 mg/kg to 90 mg/kg were tested, each given in a one dose basis, 24 h after tumor implantation. […] Compound Ib was also tested against P388 leukemia in mice.
(§2) HeLa-229 and KB cells were used for in vitro tissue culture cytotoxicity experiments. Cells were grown in monolayer culture in Difco TC Minimal Medium Eagle and supplemented with 10% foetal calf serum (Flow). Subculturing was performed every 6-7 days. Ehrlich ascites tumor was maintained in serial passages at two week intervals in Albino Swiss mice by intraperitoneal implant.
(§3) The method was essentially as described in Cancer Chemotherapy Rep. Part 3, 3, 2 (1972); NCl Monograph 45, p. 150. Drugs were always suspended in sterile 0.5% carboxymethyl cellulose. As a positive control 1 μM 6-mercaptopurine was always included.

In the next series the test system is HeLa cells. The series can be described thus: Cytotoxic activity in vitro, HeLa cells. The series is classed as cell-based. As to the method:
as §1, §2, §3

The subject of the next series is P388 leukemia. As to the kind of experiment: Antitumor activity against P388 leukemia in mice. Type of series: in vivo. The procedure:
as §1
(§4) The mice used through these experiments were female Albino Swiss mice.
(§5) Each group consisted of five to six weight matched animals. To begin the antitumor experiment 1×10^6 viable cells (trypan blue exclusion test) were injected ip. Test compounds were suspended in 0.9% (w/v) NaCl solution containing 0.10% (v/v) Tween 80 at the higher concentration. Lower doses were obtained by serial dilutions with 0.9% NaCl and injected ip in a volume of 0.5 ml in a single dose 24 h after implantation of the tumor. Animal body weights were recorded daily during the next 30 days and the survival was followed for the next 60 days. The P388 leukemia assay was performed according to standard protocol, Cancer Chemotherapy Rep.; Part 3, 3, 2 (1972); NCl Monograph 45, p. 150.
(§6) ^a Average of three tests except when noted.
(§7) ^b and ^c Assay performed according to procols of NCl.
5Fluorouracil was used as control (200 mg/kg/ing).
(§8) ^d Treatment given ip on Day 1.
^h Median survival time of treated mice/median survival of control
× 100. Values of T/C 120 denote activity.

The test system of series [1] is Herpes simplex virus (HSV-1) infected KB cells. As to the kind of experiment: Protein synthesis in HSV-1 infected and mock-infected KB cells. Type of series: cell-based. Conditions: for inhibition of translation (protein synthesis): infected vs mock-infected KB cells. As to the method:
In addition, herpes simplex virus (HSV-1) infected KB cells and KB mock-infected cells were assayed for protein synthesis in the presence of Ib at different concentrations.
Screening of antibiotic action on protein synthesis in virus infected cells.
Herpes simplex virus (HSV-1) infected KB cells and KB mock-infected cells were assayed for protein synthesis in the presence of nitrobenzothiazolo quinolium perchlorate at different concentrations. After infection or mock-infection nitrobenzothiazolo quinolium perchlorate was added at the concentration of 100, 50, 25, 5 and 1.5 μg/ml and incubated for 48 hours.
After the incubation time, protein synthesis was measured by addition of 0.1 μCi^35 S methionine ([…]; 5.4 mCl/ml) and incubated for 1 hour. After incubation the medium was removed, the reaction stopped and the radioactivity estimated in an Intertechnique liquid scintillation spectrometer.
The value 100% of control represents 72,484 cpm (mock-infected KB cells).

A further series relates to Ehrlich ascites tumor. As to the kind of experiment: Antitumor activity against Ehrlich ascites tumor in mice. The series is classed as in vivo, female Albino Swiss mice. Conditions: for death of mice: one dose; for T/C: Day 12. The procedure:
as §1, §2, §4, §5, §6, §7, §8
^f Toxicity = LTS number of toxic deaths/number of treated mice.
^g LTS = long term survivors (60 days)/number of treated mice.

Setting [2] is: Ehrlich ascites, 90 mg/kg ip on Day 1, two test results.
The mark [3] stands for this setting: Ehrlich ascites, 100 mg/kg ip on Day 1, two test results.
Setting [4] is: Ehrlich ascites, 150 mg/kg ip on Day 1.
Setting [5] is: Ehrlich ascites, 200 mg/kg ip on Day 1.
Where [6] appears, read: Ehrlich ascites, 250 mg/kg ip on Day 1.
[7] abbreviates: Ehrlich ascites, 400 mg/kg ip on Day 1.

Each structure is given as a SMILES string. Where two headings read alike, the source gives them in different places.

Regarding `COc1cc2cc3c4cc(OC)c(OC)cc4cc[n+]3c(C)c2cc1OC` [Coralyne], the antitumor activity entry with P388 murine leukemia and in the series with L1210 murine leukemia was “exhibits antitumor activity” each time.
For `COc1cc2c[n+](C)c3c4cc5c(cc4ccc3c2cc1OC)OCO5` [nitidine], the antitumor activity result in the series with P388 murine leukemia and with L1210 murine leukemia was “potent antitumor activity” throughout. Moreover, the “inhibition of DNA synthesis” value in the series on DNA synthesis was “inhibit DNA synthesis”.
Consider `O=[N+]([O-])c1ccc2c(ccc3[se]c4ccccc4[n+]32)c1.[O-][Cl+3]([O-])([O-])[O-]` [Il, 3-Nitrobenzoselenazolo(3,2-a)quinolinium Perchlorate], for which, in the series on KB cells, the IC50 came to 100 mg/L.
As for `COc1cc2c(ccc3c4cc(OC)c(OC)cc4c[n+](C)c23)cc1O` [fagaronine], the antitumor activity result in the series with P388 murine leukemia and in the series on L1210 murine leukemia was “potent antitumor activity” in each case. The “inhibition of DNA synthesis” value with DNA synthesis was “inhibit DNA synthesis”.
In the case of `O=[N+]([O-])c1ccc2c(ccc3sc4ccccc4[n+]32)c1.[O-][Cl+3]([O-])([O-])[O-]` [Ib, 3-Nitrobenzothiazolo(3,2-a)quinolinium Perchlorate], the “cytotoxicity, ranking among compounds I” value with HeLa cells (HeLa screen) and in the series on KB cells (KB screen) was “highest cytotoxicity” throughout. Also, the IC50 with HeLa cells (Homo sapiens, HeLa cells, average of at least three experiments, read-out: ED50 HeLa) came to 0.9 mg/L; in the series on KB cells, 0.61 mg/L. The Survival in the series with P388 leukemia (200 mg/kg ip on Day 1) is on record as 6/6; in the series with P388 leukemia (400 mg/kg ip on Day 1), 0/6; in the series on Ehrlich ascites tumor (setting [2]) it was 3/5; in the series on Ehrlich ascites tumor (setting [3]), 6/6; with Ehrlich ascites tumor (setting [4]) it was 6/6; in the series on Ehrlich ascites tumor (setting [5]), 6/6. Moreover, the Survival was 6/6 in the series with Ehrlich ascites tumor (setting [6]) and 0/6 in the series with Ehrlich ascites tumor (setting [7]). For the same molecule, the “T/C (median survival time of treated mice/median survival of control × 100)” value in the series with P388 leukemia (200 mg/kg ip on Day 1, values of T/C 120 denote activity) was 218. In the series on P388 leukemia (400 mg/kg ip on Day 1), the Toxicity is on record as 6/6. The virus yield result in series [1] is on record as “drastic reduction on virus yield”; in series [1] (5×10^-4 M, 48 hours), “drastic reduction on virus yield”. The “inhibition of translation (protein synthesis)” value in series [1] (5×10^-4 M, 48 hours) is listed as “inhibited preferentially translation on infected cells”; in series [1], “inhibited preferentially translation on infected cells”. Moreover, the “death of mice” value in the series with Ehrlich ascites tumor (300 mg/kg) and with Ehrlich ascites tumor (400 mg/kg) was “died within 24 h of injection” in each case. Besides, the T/C in the series on Ehrlich ascites tumor (setting [2]) was 57.3%; in the series with Ehrlich ascites tumor (setting [3]) it was 35.8%; in the series with Ehrlich ascites tumor (setting [4]) it was -0.4%; in the series with Ehrlich ascites tumor (setting [5]) it was -6.9%; in the series with Ehrlich ascites tumor (setting [6]) it was -2.5%. The “LTS, long term survivors (60 days)/number of treated mice” value is listed as 5/10 with Ehrlich ascites tumor (setting [2]); 12/12 in the series on Ehrlich ascites tumor (setting [3]); 15/18 in the series on Ehrlich ascites tumor (setting [4]); 18/18 with Ehrlich ascites tumor (setting [5]); 15/18 with Ehrlich ascites tumor (setting [6]). Moreover, the “Toxicity (toxic deaths/number of treated mice)” value in the series with Ehrlich ascites tumor (setting [7]) is given as 6/6. The same molecule returned a T/C value with Ehrlich ascites tumor (Ehrlich ascites, most effective dose 200 mg/kg, one dose 24 h after tumor implantation) of -6.2.
